# Test results as given in PubChem BioAssay AID2061108 (Research group of Professor Matthew Todd, School of …, 2025).
# Calls of active or inactive are those of the source. How the calls were made is not given here.
# What was measured:
# Test in all cases: microbial growth inhibition plus red cell haemolysis – Idler compounds, first plate, PMBN-permeabilized strains, profiling panel (AID 2061108)
# Set-up in all cases: haemolysis: dose or concentration left out as unconfirmed
# [1] = tested on: A. baumannii ATCC 17978 growth inhibition, 100 uM; conditions: S. aureus ATCC 9144 growth inhibition; measured here: A. baumannii ATCC 17978; at 100 µM; stronger effect = higher value
# [2] = tested on: A. baumannii ATCC 17978 + PMBN growth inhibition, 100 uM; conditions: A. baumannii plus PMBN growth inhibition, 100 µM; stronger effect = higher value
# [3] = tested on: M. avium growth inhibition, 10 uM; conditions: M. avium growth inhibition, 10 µM
# [4] = tested on: S. aureus ATCC 9144 growth inhibition, 100 uM; conditions: S. aureus ATCC 9144 growth inhibition; at 100 µM; stronger effect = higher value
# [5] = tested on: M. abscessus growth inhibition, 10 uM; conditions: S. aureus ATCC 9144 growth inhibition; measured here: M. abscessus; at 10 µM
# [6] = tested on: E. coli NCTC 12923 growth inhibition, 100 uM; conditions: E. coli NCTC 12923 growth inhibition, 100 µM; stronger effect = higher value
# [7] = tested on: C. albicans NCPF 3281 growth inhibition, 100 uM; conditions: S. aureus ATCC 9144 growth inhibition; measured here: C. albicans NCPF 3281; at 100 µM; stronger effect = higher value
# [8] = tested on: red blood cell haemolysis; conditions: stronger effect = higher value; dose or concentration not given here
# [9] = tested on: E. coli NCTC 12923 + PMBN growth inhibition, 100 uM; conditions: S. aureus ATCC 9144 growth inhibition; measured here: E. coli plus PMBN; at 100 µM; stronger effect = higher value
SMILES,inhibition [1] [%],inhibition [2] [%],inhibition [3] [%],inhibition [4],inhibition [5] [%],inhibition [6] [%],inhibition [7] [%],haemolysis [8] [%],inhibition [9] [%]
Cn1c(=O)oc2cc(S(=O)(=O)NC3CC4CCC3C4)ccc21 (configuration not stated),-1.79,25.8,-0.637,17.3% (inactive),-0.526,-0.946,-18.8,-0.134,-2.35
COC(COc1cncc2nnc(-c3ccc(OC(F)F)cc3)n12)c1ccccc1 (configuration not stated),-16.4,-15.5,-0.713,-22.8% (inactive),-0.536,-38.8,-17.3,-0.0885,-28.1
N#Cc1cc(-c2cccc(Cl)c2)no1,-0.723,26.6,0.349,15.6% (inactive),0.0599,-0.811,-135,6.05,1.71
CCOc1ccc(-c2cc(=O)n(CC(=O)N3CCC(Cc4ccccc4)CC3)cn2)cc1,-13.5,11,0.214,5.33% (inactive),-1.03,-16.4,-40.2,2.13,4.32
COc1ccc2c(c1)nc(-c1c[nH]c3cc(N4CCOCC4)ccc13)c1[nH]ccc12,53.1,95.9,1.53,101%,0.186,14.1,-104,0.675,98.5
COc1ccc2c(c1)nc(-c1ccc[nH]1)c1[nH]ccc12,34.2,101,1.82,102%,0.154,43.8,101,0.0477,100
N#CC1(c2cccc(-c3cccc4c3CCOC4C(=O)O)c2)CC1 (configuration not stated),-4.34,20.9,-1.43,-2.28% (inactive),0.107,-6.62,-60.5,0.0202,-11.3
Cc1cc(C)c(S(=O)(=O)N2CCC(C(=O)NCc3cccnc3)CC2)c(C)c1,-2.53,25.7,-0.596,12.6% (inactive),0.182,-1.08,-44.9,0.266,5.73
CC(=O)NCCC(=O)NNC(=O)c1cc(-c2ccccn2)nc2ccccc12,-4.58,4.14,-0.099,-6.67% (inactive),-0.278,-5.54,-14.4,0.542,-9.76
O=C(c1ccccc1)c1ccc(NS(=O)(=O)c2cccc(Cl)c2)cc1,15.2,80.1,0.0647,64.6%,-0.368,4.05,-41.2,0.625,86.3
COc1cc2nc(Nc3cc(C)[nH]n3)nc(Nc3cc(C)[nH]n3)c2cc1OC,18.8,19.6,1.15,37.5%,0.769,12.7,84.2,0.208,49.1
O=C(Nc1cccc(C(F)(F)F)c1)C(Cl)C(=O)c1ccccc1 (configuration not stated),46.6,99.6,1.13,101%,0.0425,34.5,101,0.0983,100
O=c1[nH]c(=O)c2cc(S(=O)(=O)Nc3cc(F)c(N4CCC(N5CCOCC5)CC4)c(F)c3)ccc2[nH]1,4.34,19.7,0.48,14.7% (inactive),-0.0703,-6.35,-44.5,0.307,1.59
CC(C)NC(=O)Nc1cccc(C(=O)NC(C)c2cccc(Br)c2)c1 (configuration not stated),4.29,34.3,-5.32,3.67% (inactive),-1.08,-0.541,26.3,-0.0024,28.6
Cc1cc(NC(=O)c2ccc(F)c(C(C)(C)C#N)c2)nn1C,-0.843,22.3,-0.0495,1.75% (inactive),0.104,-2.97,-51.4,0.0361,-1.71
CCS(=O)(=O)c1ccc(CNc2nc3ccccc3cc2C#N)s1,-4.82,28.4,-0.121,22.3% (inactive),0.173,-13.4,-73.7,0.247,-0.61
CC(C)c1cc(Nc2nc(N[C@@H](CO)C3CCCCC3)nc3[nH]ncc23)n[nH]1,-4.22,57.6,0.54,-3.86%,-0.415,-18.2,-64,1.61,99.1
O=C(Nc1ccc(Oc2ccccc2)cc1)c1ccc(-c2nn[nH]n2)nc1,-1.31,15.2,-0.673,15% (inactive),-0.682,0.676,-10.3,-0.153,10.6
O=S(=O)(NC1(Cc2ccc(Cl)cc2Cl)CCC1)c1ccc(-c2nn[nH]n2)cc1,22.7,65.8,0.393,17% (inactive),-1.11,0.135,-103,-0.271,22.2
O=S(=O)(F)c1cccc(NCc2ccc(F)cc2)n1,-3.33,16.7,1.19,13% (inactive),-1.1,-1.49,-98.2,-0.396,0.494
CS(=O)(=O)CCCNC[C@@H](O)c1ccccc1,-0.12,20.9,0.187,14.7% (inactive),-0.256,-6.89,-65.9,0.325,1.22
Nc1ncnc2cc(-c3cccc(S(=O)(=O)NC(=O)C(N)CC(=O)O)c3)sc12 (configuration not stated),-7.14,9.86,11.9,15.7% (inactive),-1.16,0.676,-64.6,-0.194,8.15
C=CCSc1nc2c(c(=O)[nH]1)C(c1ccc(N(C)C)cc1)C1=C(CCCC1=O)N2 (configuration not stated),1.79,1.16,0.543,-16.3% (inactive),-0.888,-40,15.9,-0.046,-12.3
Cc1ncsc1CCCN(C)c1cnc(S(=O)(=O)F)c(Br)c1,-2.86,21.9,0.0507,16.7% (inactive),-0.937,1.49,-94.3,0.616,0.37
O=C(NC1(c2ccc(Br)cc2)COC1)c1ccc(N2CCOCC2)cc1,1.43,17.5,-0.734,5.33% (inactive),-1,-5.27,-56.4,0.177,4.32
COc1cc2nc(Nc3cc(C)[nH]n3)nc(N3CC(N(C)C)C3)c2cc1OC,3.33,17.5,1.81,33% (inactive),-0.369,5.14,13.3,0.198,-10.1
CC1(C)C2CCC1(C)C(OCC(O)CNC1CCCCC1)C2 (configuration not stated),29.4,79.1,-0.797,17%,-1.25,19.9,100,0.00104,100
N#Cc1c(N2Cc3cccc(O)c3C2)nc2ccccc2c1C(F)(F)F,23.8,33.9,0.654,97%,-1.26,2.16,3.66,-0.139,35.4
